According to US20100279941A1, “CD36 MODULATION AND USES THEREOF” (priority 2009, published 2010):

Tests used:
Assay type in all cases: in vivo
[1] = test system: CD36^+/+ and CD36^−/− mice; test: Area at risk and infarct size after 30-min LCAL and 48 hours reperfusion (Evans blue/TTC)
From the text: Animals. CD36^−/− mice were generated by targeted homologous recombination and backcrossed six times to C57BI/6. Wild-type control littermates (CD36^+/+) were bred from the same cross and were therefore of identical genetic background [Febbraio et al., 2000]. Male mice, aged 23 (±1) weeks, were used for experiments. They were fed standard chow (#5075, Charles Rivers, Saint-Constant, Québec, Canada) and water ad libitum, and housed singly during treatment periods (2 or 10 weeks). Daily pharmacological treatments with 300 μg/kg of EP 80317 or CP1A(IV) or vehicle (0.9% NaCl) were done by subcutaneous (s.c.) injections.
(§1) C57BU6 mice were bred in house. Male mice, aged 23 (±1) weeks, were used for experiments. They were fed standard chow (#5075, Charles Rivers, Saint-Constant, Québec, Canada) and water ad libitum, and housed singly during treatment periods (2 weeks). Daily pharmacological treatments with 300 μg/kg (289 nmol/kg) of EP 80317 or 289 nmol/kg of CP-3(IV), 289 nmol/kg of CP-AP-4 or vehicle (0.9% NaCl) were done by subcutaneous (s.c.) injections.
(§2) Experimental model of IHD: Transient left coronary artery ligation in vivo. Mice were subjected to a transient LCAL surgery as described before, with minor modifications [Tarnayski et al., 2004]. Mice were injected i.p. with buprenorphine (0.05 mg/kg) and placed in an induction chamber with inhalation anesthesia comprised of 3% isoflurane mixed with 100% oxygen. Mice were intubated with a blunt ended 20-gauge catheter into the trachea via the mouth and mechanically ventilated at a tidal volume of 7 ml/kg at 130 respirations/min with a MiniVent™ mouse ventilator (model 845, Harvard Apparatus, Saint-Laurent, QC, Canada). Anesthesia was maintained with 1.5-2% isoflurane and the animals were kept warm using electrical heating pads during the surgical procedure. The chest was opened by a horizontal incision through the skin and muscle layers at the third intercostal space exposing the left side of the heart. […] Visual blanching distal to the coronary occlusion confirmed myocardial ischaemia. Lidocaine (6 mg/kg) was administered i.p. just following occlusion and prior to reperfusion. After 30 minutes, the PE10 tubing was removed allowing reperfusion. The lungs were reinflated and the chest wound closed layer by layer before extubation. At 6 hours following reperfusion, mice were anesthetized (isoflurane), a blood sample withdrawn, and the heart arrested in diastole by an intravenous injection of 1 M KCl (0.5 mL). Hearts were immediately frozen at −80° C. unless otherwise stated.
Evaluation of area at risk and infarct size. Two days after reperfusion, the left anterior descending (LAD) coronary artery was re-occluded at the original site and the abdominal aorta was injected retrogradly with 5% Evans blue dye to delineate the AAR by the absence of dark blue staining. The left ventricle, including the interventricular septum, was dissected and cut into transverse 1-mm slices from the apex to the base, using an acrylic matrix (Alto Inc., Hatfield, Pa., USA). The slices were incubated in 1% triphenyltetrazolium chloride solution at 37° C. for 15 min and placed in 10% neutral buffered formalin for 12 hours. Each slice was weighed and photographed on both sides with a digital camera (Nikon, Coolpix™ 4500, Mississauga, Ontario, Canada). The total LV area, AAR and IA were determined for each side of a slice by planimetric analysis using Adobe CS3 Photoshop™ software (Ottawa, ON, Canada), and averaged. The infarct weight was determined as follows: [(A1×WT1)+(A2×WT2)+(A3×WT3)+(A4×WT4) . . . ] where A and WT are the infarct area and weight of the section, respectively. The AAR weight was calculated in a similar manner, but by subtracting the blue (viable) stained zone from the weight. The results are expressed in terms of % IA/AAR, IA/LV and AAR/LV.

[2] = test system: CD36^+/+ and CD36^−/− mice; test: Myocardial metabolic rate of glucose by μPET with [18F]-FDG; settings: 6 hours reperfusion; in words
Method: as §2, with “After 30 minutes, the PE10 tubing was removed allowing reperfusion. The lungs were reinflated and the chest wound closed layer by layer before extubation. At 6 hours following reperfusion, mice were anesthetized (isoflurane), a blood sample withdrawn, and the heart arrested in diastole by an intravenous injection of 1 M KCl (0.5 mL). Hearts were immediately frozen at −80° C. unless otherwise stated.” left out
Imaging Data Analysis. For [^11C]-acetate images, dynamic series of 25 frames each were sorted out whereas 27 frames were used for ^18FDG and ^18FTHA imaging, and were reconstructed and analyzed using multicompartmental analysis [Menard et al., 2009] or the Patlak method for FTHA [Patlak and Blasberg, 1985]. […]

C57BL/6 mice = test: Blood lactate after transient ischemia; settings: 6-hour reperfusion; 2 weeks 289 nmol/kg; P<0.05 compared to vehicle
Method: as §1, §2
Blood lactate. Blood lactate was determined using the Lactate Pro Analyser (FaCT Canada Consulting Ltd, Quesnel, BC, Canada), according to the manufacturer's instructions.

[3] = 2-week treatment 300 μg/kg/d, CD36^+/+ mice, 48 hours reperfusion, p<0.05 vs vehicle

In the case of “HAIC-2MeDTrp-DLys-Trp-DPhe-Lys-NH2 [EP 80317]”, the “reduction of IA/AAR ratio” value [1, 3] is reported as 31%, the “reduction of IA/LV ratio” value [1, 3] is reported as 34% and the area-at-risk ([1]; CD36^+/+ (C57BL/6) mice, 289 nmol/kg 2 weeks, 48 hours reperfusion, mean (±SE)) is reported as 51 (±5) %. The “reduction of IA/LV ratios” value ([1]; CD36^+/+ (C57BL/6) mice, 289 nmol/kg 2 weeks, 48 hours reperfusion, p<0.001 vs 0.9% NaCl) was 48%, the “effect on infarct size” value ([1]; CD36^−/− mice, 48 hours reperfusion, in words) was “did not modulate” and the “effect on AAR/LV” value ([1]; pretreatment 14 days, both CD36^+/+ and CD36^−/− mice, in words) was “did not modulate”. For the same substance, the “myocardial metabolic rate of glucose (MMRG)” value [2] was “not modulated” and the “reduction of lactate concentration in blood” value (C57BL/6 mice) was 34%.
